Laboratory results: patent publication US20250066335A1, “POLYSUBSTITUTED 4-HYDROXYPYRIDINE AND 4-HYDROXYQUINOLINE DERIVATIVES AS GPR84 ANTAGONISTS” (UNIVERSITY OF COPENHAGEN, priority 2021, published 2025)

biological target: T1, GPR84 (Homo sapiens, UniProt Q9NQS5); test: PRESTO-Tango β-arrestin2 recruitment assay, GPR84 antagonistic activity; format: cell-based; conditions: antagonist activity in the Presto-TANGO assay; inhibition of the response from the agonist ZQ-16 (100 nM); HTLA cells
T1 construct: expressed in transfected cells; host or cells: HTLA cells (HEK293 line stably expressing a tTA-dependent luciferase reporter and a β-arrestin2-TEV fusion gene), transiently transfected with PEI
Protocol: PRESTO-Tango β-arrestin recruitment assay (W.K. Kroeze et al., 2015). HTLA cells (a HEK293 cell line stably expressing a tTA-dependent luciferase reporter and a β-arrestin2-TEV fusion gene) were maintained in Dulbecco's Modified Eagle's Medium (DMEM) supplemented with 10% Fetal Bovine Serum (dFBS), 100 U/mL penicillin and 100 μg/mL streptomycin, 2 μg/mL puromycin and 100 μg/mL hygromycin B in a humidified atmosphere at 37° C. in 5% CO2. For transfection, cells were plated at 9×10^6 to 10×10^6 cells per 15-cm cell-culture dish (day 1). The following day (day 2), cells were transfected by adding 5 μg DNA and 15 μg polyethylenimine (PEI) diluted in 1 mL Opti-MEM (Reduced Serum Medium supplied by ThermoFisher). On day 3, transfected cells were transferred at 25000 cells per well in 40 μl of medium into poly-l-lysine-coated and rinsed 384-well white, clear-bottomed cell-culture plates (Greiner Bio-One). On day 4, dilutions of the ligands to be tested were prepared in 1% dFBS DMEM and 10 μL were added to each well. On day 5, 20 μl per well of Bright-Glo solution (Promega) diluted 10-fold in assay buffer (Hanks' Balanced Salt Solution [HBSS], 20 mM HEPES, 1 mM CaCl2, 1 mM MgCl2, pH adjusted to 7.4 by 5 M NaOH) was added to each well. After incubation for 20 min at room temperature, luminescence was counted in an Enspire luminescence counter at 384 nm. Results in the form of relative luminescence units (RLU) were exported into Excel spreadsheets, and GraphPad Prism was used for analysis of data. To measure constitutive activity, no ligand was added on day 4.
The GPR84 antagonistic activity of the compounds was determined using the PRESTO-Tango β-arrestin2 recruitment assay (Assay I, see assays above), from which the concentration of each compound required for 50% inhibition (IC50) of the response from the agonist ZQ-16 (100 nM) was determined. The antagonistic activity for each compound is given in Table 1 as the pIC50, which is the negative log of the IC50 value when converted to molar.

T1 sequence (Q9NQS5 whole entry, the tested form may be a part): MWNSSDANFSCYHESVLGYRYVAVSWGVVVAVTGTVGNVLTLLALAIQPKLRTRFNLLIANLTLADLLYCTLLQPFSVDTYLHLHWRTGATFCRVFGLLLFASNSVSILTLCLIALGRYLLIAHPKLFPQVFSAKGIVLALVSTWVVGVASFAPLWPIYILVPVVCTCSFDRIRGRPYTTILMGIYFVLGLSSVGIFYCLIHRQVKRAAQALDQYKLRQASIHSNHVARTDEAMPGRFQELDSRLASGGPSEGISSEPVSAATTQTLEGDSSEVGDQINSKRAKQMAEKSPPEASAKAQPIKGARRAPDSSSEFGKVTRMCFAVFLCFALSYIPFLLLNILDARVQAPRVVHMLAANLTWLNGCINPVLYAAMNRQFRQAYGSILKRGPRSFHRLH

Row | IC50 | Compound
1 | 1290 nM | Cc1c(O)cc(OCC2COCCO2)nc1CCc1ccc(OCC(=O)O)cc1 (stereo not drawn) [Example 30, 2-(4-(2-(6-((1,4-Dioxan-2-yl)methoxy)-4-hydroxy-3-methylpyridin-2-yl)ethyl)phenoxy)acetic acid]
2 | 0.55 nM | CCc1c(O)cc(OC[C@@H]2COCCO2)nc1CCc1ccc(OC)cc1C#N [Example 55, (S)-2-(2-(6-((1,4-dioxan-2-yl)methoxy)-3-ethyl-4-hydroxypyridin-2-yl)ethyl)-5-methoxybenzonitrile]
3 | 11.2 nM | CCOC(=O)COc1ccc(CCc2nc(OCC3COCCO3)cc(O)c2C)cc1 (stereo not drawn) [Example 28, Ethyl 2-(4-(2-(6-((1,4-dioxan-2-yl)methoxy)-4-hydroxy-3-methylpyridin-2-yl)ethyl)phenoxy)acetate]
4 | 178 nM | CCCc1ccc(CCc2nc(OCC3CCCCO3)cc(O)c2CCc2ccccc2)cc1 (stereo not drawn) [Example 11, 3-Phenethyl-2-(4-propylphenethyl)-6-((tetrahydro-2H-pyran-2-yl)methoxy)pyridin-4-ol]
5 | 141 nM | CCCc1ccc(CCc2nc(OCC3CCCCO3)cc(O)c2-c2ccc(C(=O)O)cc2)cc1 (stereo not drawn) [Example 21, 4-(4-Hydroxy-2-(4-propylphenethyl)-6-((tetrahydro-2H-pyran-2-yl)methoxy)pyridin-3-yl)benzoic acid]
6 | 21.9 nM | CCCc1ccc(CCc2nc(OCC3CCCCO3)cc(O)c2/C=C/C(=O)OCC)cc1 (stereo not drawn) [Example 12, Ethyl (E)-3-(4-hydroxy-2-(4-propylphenethyl)-6-((tetrahydro-2H-pyran-2-yl)methoxy)pyridin-3-yl)acrylate]
7 | 0.209 nM | [2H]C([2H])([2H])C([2H])([2H])Oc1ccc(C([2H])([2H])C([2H])([2H])c2nc(OCC3COCCO3)cc(O)c2CC)cc1 (stereo not drawn) [Example 44, 6-((1,4-Dioxan-2-yl)methoxy)-2-(2-(4-(ethoxy-d5)phenyl)ethyl-1,1,2,2-d4)-3-ethylpyridin-4-ol]
8 | 0.302 nM | CCc1c(O)cc(OCC2COCCO2)nc1CCc1ccc(OCCCNC(=O)OC(C)(C)C)cc1 (stereo not drawn) [Example 33, tert-Butyl (3-(4-(2-(6-((1,4-dioxan-2-yl)methoxy)-3-ethyl-4-hydroxypyridin-2-yl)ethyl)phenoxy)propyl)carbamate]
9 | 13.2 nM | CCCc1ccc(CCc2nc(OCC3CCCCO3)cc(O)c2CCC(=O)OCC)cc1 (stereo not drawn) [Example 13, Ethyl 3-(4-hydroxy-2-(4-propylphenethyl)-6-((tetrahydro-2H-pyran-2-yl)methoxy)pyridin-3-yl)propanoate]
10 | 0.389 nM | CCOc1ccc(CCc2nc(OCC3COCCO3)cc(O)c2CC)cc1 (stereo not drawn) [Example 26, 6-((1,4-Dioxan-2-yl)methoxy)-2-(4-ethoxyphenethyl)-3-ethylpyridin-4-ol]
11 | 389 nM | CCCc1ccc(CCc2nc(OCC3CCCCO3)cc(O)c2-c2ccccc2C)cc1 (stereo not drawn) [Example 9, 2-(4-Propylphenethyl)-6-((tetrahydro-2H-pyran-2-yl)methoxy)-3-(o-tolyl)pyridin-4-ol]
12 | 1.07 nM | CCc1c(O)cc(OCC2COCCO2)nc1CCc1ccc(O)cc1 (stereo not drawn) [Example 43, 6-((1,4-dioxan-2-yl)methoxy)-3-ethyl-2-(4-hydroxyphenethyl)pyridin-4-ol]
13 | 81.3 nM | CCCc1ccc(CCc2nc(OCC3CCCCO3)cc(O)c2C(C)C)cc1 (stereo not drawn) [Example 8, 3-Isopropyl-2-(4-propylphenethyl)-6-((tetrahydro-2H-pyran-2-yl)methoxy)pyridin-4-ol]
14 | 1.26 nM | CCc1c(O)cc(OC[C@@H]2COCCO2)nc1CCc1ccc(OC)c(OC)c1 [Example 52, (S)-6-((1,4-dioxan-2-yl)methoxy)-2-(3,4-dimethoxyphenethyl)-3-ethylpyridin-4-ol]
15 | 0.741 nM | CCc1c(O)cc(OCC2COCCO2)nc1CCc1ccc(OCCO)cc1 (stereo not drawn) [Example 35, 6-((1,4-Dioxan-2-yl)methoxy)-3-ethyl-2-(4-(2-hydroxyethoxy)phenethyl)pyridin-4-ol]
16 | 0.2 nM | CCc1c(O)cc(OCC2COCCO2)nc1CCc1ccc(OCCOc2ccccc2)cc1 (stereo not drawn) [Example 38, 6-((1,4-Dioxan-2-yl)methoxy)-3-ethyl-2-(4-(2-phenoxyethoxy)phenethyl)pyridin-4-ol]
17 | 148 nM | CCCc1ccc(CCc2nc(OCC3CCCCO3)cc(O)c2-c2ccc(OCC(=O)OC)cc2)cc1 (stereo not drawn) [Example 18, Methyl 2-(4-(4-hydroxy-2-(4-propylphenethyl)-6-((tetrahydro-2H-pyran-2-yl)methoxy)pyridin-3-yl)phenoxy)acetate]

Row | IC50 | Compound
18 | 93.3 nM | CCCc1ccc(CCc2nc(OCC3CCCCO3)cc(O)c2-c2ccc(O)cc2)cc1 (stereo not drawn) [Example 17, 3-(4-Hydroxyphenyl)-2-(4-propylphenethyl)-6-((tetrahydro-2H-pyran-2-yl)methoxy)pyridin-4-ol]
19 | 0.759 nM | CCc1c(O)cc(OCC2COCCO2)nc1CCc1ccc(OCc2nc(C(=O)OC)co2)cc1 (stereo not drawn) [Example 41, Methyl 2-((4-(2-(6-((1,4-dioxan-2-yl)methoxy)-3-ethyl-4-hydroxypyridin-2-yl)ethyl)phenoxy)methyl)oxazole-4-carboxylate]
20 | 85.1 nM | CCCc1ccc(CCc2nc(OCC3CCCCO3)cc(O)c2-c2ccccc2)cc1 (stereo not drawn) [Example 3, 3-Phenyl-2-(4-propylphenethyl)-6-((tetrahydro-2H-pyran-2-yl)methoxy)pyridin-4-ol]
21 | 1.7 nM | CCCc1ccc(CCc2nc(OCC3CCCCO3)cc(O)c2CCCO)cc1 (stereo not drawn) [Example 15, 3-(3-Hydroxypropyl)-2-(4-propylphenethyl)-6-((tetrahydro-2H-pyran-2-yl)methoxy)pyridin-4-ol]
22 | 0.977 nM | CCc1c(O)cc(OCC2COCCO2)nc1CCc1ccc(OCCN2C(=O)c3ccccc3C2=O)cc1 (stereo not drawn) [Example 42, 2-(2-(4-(2-(6-((1,4-Dioxan-2-yl)methoxy)-3-ethyl-4-hydroxypyridin-2-yl)ethyl)phenoxy)ethyl)isoindoline-1,3-dione]
23 | 0.331 nM | CCc1c(O)cc(OCC2COCCO2)nc1CCc1ccc(OCCOCCNC(=O)OC(C)(C)C)cc1 (stereo not drawn) [Example 34, tert-Butyl (2-(2-(4-(2-(6-((1,4-dioxan-2-yl)methoxy)-3-ethyl-4-hydroxypyridin-2-yl)ethyl)phenoxy)ethoxy)ethyl)carbamate]
24 | 1.55 nM | CCc1c(O)cc(OC[C@@H]2COCCO2)nc1CCc1ccc(OC)c(C#N)c1 [Example 54, (S)-5-(2-(6-((1,4-dioxan-2-yl)methoxy)-3-ethyl-4-hydroxypyridin-2-yl)ethyl)-2-methoxybenzonitrile]
25 | 145 nM | CCCc1ccc(CCc2nc(OCC3CCCCO3)cc(O)c2-c2ccc(C(=O)OC)cc2)cc1 (stereo not drawn) [Example 20, Methyl 4-(4-hydroxy-2-(4-propylphenethyl)-6-((tetrahydro-2H-pyran-2-yl)methoxy)pyridin-3-yl)benzoate]
26 | 2.95 nM | CCc1c(O)cc(OCC2COCCO2)nc1CCc1ccc(OCc2nc(C)no2)cc1 (stereo not drawn) [Example 40, 6-((1,4-Dioxan-2-yl)methoxy)-3-ethyl-2-(4-((3-methyl-1,2,4-oxadiazol-5-yl)methoxy)phenethyl)pyridin-4-ol]
27 | 3.02 nM | CCCc1ccc(CCc2nc(OCC3CCCCO3)cc(O)c2Br)cc1 (stereo not drawn) [Example 1, 3-bromo-2-(4-propylphenethyl)-6-((tetrahydro-2H-pyran-2-yl)methoxy)pyridin-4-ol]
28 | 93.3 nM | CCCc1ccc(CCc2nc(OCC3CCCCO3)cc(O)c2-c2ccc(OCC(=O)O)cc2)cc1 (stereo not drawn) [Example 19, 2-(4-(4-Hydroxy-2-(4-propylphenethyl)-6-((tetrahydro-2H-pyran-2-yl)methoxy)pyridin-3-yl)phenoxy)acetic acid]
29 | 4.07 nM | CCc1c(O)cc(OCC2COCCO2)nc1CCc1ccc(OCCCCC(=O)O)cc1 (stereo not drawn) [Example 47, 5-(4-(2-(6-((1,4-Dioxan-2-yl)methoxy)-3-ethyl-4-hydroxypyridin-2-yl)ethyl)phenoxy)pentanoic acid]
30 | 0.501 nM | CCOc1ccc(CCc2nc(OCC3COCCO3)cc(O)c2CC)cn1 (stereo not drawn) [Example 49, 6-((1,4-Dioxan-2-yl)methoxy)-2-(2-(6-ethoxypyridin-3-yl)ethyl)-3-ethylpyridin-4-ol]
31 | 66.1 nM | CCCc1ccc(CCc2nc(OCC3CCCCO3)cc(O)c2-c2ccc(C)cc2)cc1 (stereo not drawn) [Example 10, 2-(4-Propylphenethyl)-6-((tetrahydro-2H-pyran-2-yl)methoxy)-3-(p-tolyl)pyridin-4-ol]
32 | 2.88 nM | CCc1c(O)cc(OCC2COCCO2)nc1CCc1ccc(OCC(N)=O)cc1 (stereo not drawn) [Example 37, 2-(4-(2-(6-((1,4-Dioxan-2-yl)methoxy)-3-ethyl-4-hydroxypyridin-2-yl)ethyl)phenoxy)acetamide]
33 | 0.355 nM | CCc1c(O)cc(OC[C@@H]2COCCO2)nc1CCc1ccc(OC)cc1OC [Example 53, (S)-6-((1,4-dioxan-2-yl)methoxy)-2-(2,4-dimethoxyphenethyl)-3-ethylpyridin-4-ol]
